The values that follow come from patent US20020032183A1, “Use of (di-substituted-phenyl)-pyrimidinyl-imidazole derivatives as JNK-inhibitors” (priority 2000, published 2002).

Where a name gives a salt, the structure may show the parent alone.

In one test the target is T1, JNK3α1 (Homo sapiens, UniProt P53779).
T1 construct: Truncated JNK3α1 (amino acids 39-422) was expressed in E. coli; made in house; host or cells: E. coli
Briefly: Biochemical determination of inhibition of JNK3α1. Conditions: truncated JNK3α1, 1 μM ATP, 0.5 μM GST-ATF2, 30° C., 30 min. The protocol: Activation reactions were incubated at 30° C. for 2 h.
Enzyme inhibition studies were performed at 30° C. for 30 min with 0.5 μM GST-ATF2, 1 μM ATP, 1 nM activated JNK3α1 and compound ranging from 30 pM to 100 μM. Reactions were carried out in 100 μL volumes containing the final concentrations of the following: 25 mM HEPES (Sigma) pH 7.4; 10 mM MgCl2 (Sigma); 2 mM DTT (Sigma); 20 mM β-glycerophosphate (Sigma); 0.1 mM Na3VO4 (Sigma); 2 μCi [γ-^33P]ATP (2000 Ci/mmol; 1 Ci=37 GBq) (Amersham Pharmacia Biotech, Piscataway, N.J.). Reactions were stopped with 100 μL 100 mM EDTA/15 mM sodium pyrophosphate. Immobilon™-P 96-well plates (Millipore MAIPNOB™ 10, available from the Millipore Corp., Bedford, Mass.) were pretreated with 100 μL methanol, followed by 100 μL 15 mM sodium pyrophosphate. Fifty μL of the stopped reaction was spotted in triplicate on the Immobilon™-P 96-well plate. The samples were vacuum-filtered and washed three times each with 100 μL 75 mM H3PO4 to remove unincorporated [γ-^33P]ATP. After the third H3PO4 wash and a final filtration step to remove H3PO4, 50 μL of Microscint™-20 (Packard BioScience Ltd., Pangbourne, Berkshire, U.K.) was added to each well and samples were analyzed on a Packard Topcount™ liquid scintillation counter. IC50 values were determined by fitting the data to the equation for a four parameter logistic.

Test [1] relates to Rat superior cervical ganglion neurons. Description: Sympathetic neuronal survival assay (no NGF exposure; GAP-43 ELISA and cell counts). Conditions: NGF 1 ng/ml. The class given is cell-based. The protocol: Activation of c-jun-N-terminal kinase (JNK) has been implicated in apoptosis in sympathetic neurons. An inhibitor of JNK, Example 2, was tested for neuroprotective effects in two models of sympathetic neuronal cell death.
In the first model, ganglia were dissociated and plated directly into culture plates in the presence of compound for 48 hours, then fixed and survival assayed using an ELISA for GAP-43. This model will hereafter be referred to as the ‘survival assay’.
Ganglia were enzymatically dissociated using 0.25% trypsin for 45 minutes. The trypsin was then inhibited using Dulbecco's MEM (DMEM) supplemented with 10% fetal bovine serum, and the cells mechanically triturated using a pipette tip to form a single cell suspension. Neurons in the suspension were counted using a haemocytometer, and plated at a density of 3000-5000 neurons per well in poly-D-lysine and laminin coated 96 well tissue culture clusters in DMEM supplemented with B27 serum substitute. Cultures were then incubated at 37° C./5% CO2. One hour following plating, cultures were either treated with NGF 25 ng/ml or with L-790,984 at a range of concentrations for the NGF deprivation and survival assays respectively.
Cultures for the NGF deprivation assay were returned to the incubator for 4 days. Following this, the medium was aspirated, plates washed once with DMEM/B27, and the cultures treated with Example 2 at concentrations ranging from 1 nM to 10 μM, together with an anti-NGF blocking antibody at 250 ng/ml. Cultures were then returned to the incubator for a further 72 hours prior to fixation and survival quantification. Cultures treated with Example 2 immediately for the survival assay were returned to the incubator for 48 hours; cultures were then fixed and survival quantified using the GAP-43 ELISA.
Cultures were fixed by the addition of an equal volume 4% paraformaldehyde to each well for 10 minutes; this was then aspirated, and replaced by a further volume of 4% paraformaldehyde for a further 20 minutes at room temperature. Plates were then washed three times with PBS/0.3% TX100, and non-specific binding sites blocked by the addition of 5% normal horse serum (NHS) in PBS/0.3% TX100. Plates were incubated at room temperature for one hour, then the blocking serum was aspirated without washing and replaced with primary antibody. The primary antibody used was a mouse monoclonal antibody raised against Growth Associated Protein 43 (Sigma), prepared at a dilution of 1:500 in PBS/0.3% TX100/5% NHS. Primary antibody was added to all sample wells, with four control wells returned to blocking serum to act as minus primary control. Plates were then refrigerated overnight at 4° C. The next day, plates were washed three times with PBS/0.3 TX100 and secondary antibody added. The secondary antibody used was peroxidase conjugated sheep anti-mouse IgG, and was added at a dilution of 1:1000 in PBS/0.3% TX100/5% NHS. Plates were incubated for 1 hour at room temperature, then washed three times with PBS/0.3% TX100, and K-Blue insoluble peroxidase substrate added for 30 minutes at room temperature. The optical density of the plates was then read at 650 nm, and the survival of neurons calculated and expressed as percentage of the control response.
Cell counts were performed on one sample plate for each model of sympathetic neuronal cell death, by the addition of a tertiary antibody to the plate, followed by avidin-biotin complex and an insoluble peroxidase substrate. Following quantification of optical density, plates were washed three times in PBS/0.3% TX100, and non-specific sites blocked using PBS/0.3% TX100/5% normal rabbit serum (“NRS”). Plates were incubated for one hour at room temperature, then the blocking serum was aspirated and replaced with biotinylated rabbit anti-sheep IgG at a dilution of 1:500 in PBS/0.3% TX10O/5% NRS. […]
In general terms: In an ELISA, binding on a coated surface is turned into a signal by an enzyme label.

T1 sequence (P53779 39-422 isoform P53779-2): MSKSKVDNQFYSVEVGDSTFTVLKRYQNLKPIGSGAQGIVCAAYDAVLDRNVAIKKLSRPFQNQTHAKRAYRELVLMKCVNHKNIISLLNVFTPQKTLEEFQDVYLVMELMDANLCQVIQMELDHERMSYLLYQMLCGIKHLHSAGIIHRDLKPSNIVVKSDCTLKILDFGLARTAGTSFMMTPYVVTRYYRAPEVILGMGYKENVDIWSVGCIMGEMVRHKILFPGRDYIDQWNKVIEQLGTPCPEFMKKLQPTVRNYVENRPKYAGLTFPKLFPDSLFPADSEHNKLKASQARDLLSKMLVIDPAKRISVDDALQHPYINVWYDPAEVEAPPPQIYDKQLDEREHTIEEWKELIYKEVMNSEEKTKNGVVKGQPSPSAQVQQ

Turning to `CCCn1c(C2CCNCC2)nc(-c2ccc(Cl)c(Cl)c2)c1-c1ccnc(NC2CC2)n1` [Example 1, Cyclopropyl-{4-[5-(3,4-dichlorophenyl)-2-piperidin-4-yl-3-propyl-3H-imidazol-4-yl]-pyrimidin-2-yl}amine], the IC50 – broadly, the concentration that inhibits the measured activity by half – against JNK3α1 stood at 8 nM.

On to `Clc1ccc(-c2nc(C3CCNCC3)n(CC3CC3)c2-c2ccnc(NC3CC3)n2)cc1Cl` [Example 7, Cyclopropyl-{4-[3-cyclopropylmethyl-5-(3,4-dichlorophenyl)-2-piperidin-4-yl-3H-imidazol-4-yl]-pyrimidin-2-yl}amine bis trifluoroacetic acid salt], for which the concentration for half-maximal inhibition (IC50) at JNK3α1 amounted to 4 nM.

B1: NGF: NGF at 1 ng/ml, comparison group in the sympathetic neuronal survival assay; these neurons are NGF dependent (protein, UniProt P01139 122-241, looked up)
Beta-nerve growth factor: SSTHPVFHMGEFSVCDSVSVWVGDKTTATDIKGKEVTVLAEVNINNSVFRQYFFETKCRASNPVESGCRGIDSKHWNSYCTTTHTFVKALTTDEKQAAWRFIRIDTACVCVLSRKATRRG
As to B1, in test [1] (GAP-43 ELISA), the “Survival, ELISA Data Mean” value came out at 618.55. Also, the “Survival, Cell Counts Mean” value in test [1] (immunostained neurons per well) is 587.00.
